ChEMBL document CHEMBL4673290, “Diazaspirononane Nonsaccharide Inhibitors of O-GlcNAcase (OGA) for the Treatment of Neurodegenerative Disorders” (J Med Chem, 2020)

Test: Selectivity ratio of IC50 for inhibition of clostridium perfringens OGA to IC50 for Inhibition of human recombinant full-length OGA transcript variant 1 expressed in HEK293T cells
Format: cell-based

SMILES	Ratio IC50
CC(=O)Nc1ncc(CN2CC3(CCN(c4cc(C)nc5ncnn45)C3)C2)s1	100
CC(=O)Nc1ncc(CN2CCC3(CCN(c4cc(C)nc5ncnn45)C3)C2)s1 (configuration not stated)	100
